# Test results as given in US20220098203A1 (priority 2018, published 2022).
# How the values were obtained:
# MAT2A homodimer = molecular target: T1, MAT2A homodimer (Homo sapiens, UniProt P31153); test: MAT2A biochemical assay (liberated phosphate, PiColorLock Gold); conditions: Table 5a; MAT2A biochemical assay; read-out: Enzyme Inhibition
# T1 construct: inferred from the Ni sepharose purification and imidazole elution; made in house; host or cells: SF9 insect cells, recombinant baculovirus (Bac to Bac, pFASTBAC1)
# Method in brief: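 Baculovirus/Sf9-expressed, Ni-purified MAT2A homodimer preincubated with compound 60 min at 25 °C, then reacted 60 min at 25 °C with substrate mix of 500 μM ATP and 400 μM L-methionine, pH 7.0 (mix, not final levels). Phosphate released with SAM measured by PiColorLock Gold against phosphate standard curve.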
# [1] = system: SAM in HCT116 MTAP-deleted cells; test: Cellular assay of target engagement (SAM), LC-MS/MS; type: cell-based, human; conditions: Homo sapiens, HCT-116, Table 5a, 72 h, read-out: Cell 72 h SAM Inhibition (MTAP −/−)
# Method in brief: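 HCT116 cells with MTAP deleted were treated with compound for 72 h at 37°C/5% CO2. After quenching lysis in cold 80% methanol with 1 M acetic acid, SAM was quantified by LC-MS/MS against a d3-SAM internal standard.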
# HCT116 MTAP-/- = test: Inhibition of cellular proliferation (Cell Titer Glo), HCT116 MTAP-/-; type: cell-based, human; conditions: Homo sapiens, HCT-116, 96 h, Table 5a, 4 days, read-out: 4 Day Relative Growth Inhibition (MTAP −/−)
# Method in brief: (§1)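 Isogenic HCT116 MTAP+/+ and MTAP−/− cells were plated, treated with MAT2A inhibitor after 24 h, and incubated 4 days at 37 °C. Proliferation was read by CellTiter-Glo ATP luminescence, blank-subtracted and normalized to 0.2% DMSO control.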
# HCT116 MTAP+/+ = test: Inhibition of cellular proliferation (Cell Titer Glo), HCT116 MTAP+/+; type: cell-based; conditions: Homo sapiens, HCT-116, 96 h, Table 5a, 4 days, read-out: 4 Day Relative Growth Inhibition (MTAP +/+)
# Method in brief: as §1
# T1 sequence (P31153 whole entry): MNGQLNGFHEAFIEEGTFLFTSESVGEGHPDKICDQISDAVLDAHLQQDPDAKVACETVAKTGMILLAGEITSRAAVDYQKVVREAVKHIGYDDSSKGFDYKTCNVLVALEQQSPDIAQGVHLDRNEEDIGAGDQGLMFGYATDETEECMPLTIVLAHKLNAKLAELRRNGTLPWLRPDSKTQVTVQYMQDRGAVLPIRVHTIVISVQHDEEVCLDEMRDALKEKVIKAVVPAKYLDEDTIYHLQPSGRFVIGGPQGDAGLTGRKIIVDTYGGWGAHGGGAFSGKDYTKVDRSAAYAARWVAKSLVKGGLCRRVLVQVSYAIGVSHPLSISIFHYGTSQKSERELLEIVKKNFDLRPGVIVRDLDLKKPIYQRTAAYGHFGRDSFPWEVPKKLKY
IC50 (MAT2A homodimer),IC50 [1],IC50 (HCT116 MTAP-/-),IC50 (HCT116 MTAP+/+),Compound
< 100 nM,< 100 nM,< 100 nM,> 1000 nM,"Cn1cnc2ccc(N3Cc4ccc(OCC(F)F)nc4N(c4ccc(OC(F)F)cc4)C3=O)cc21 [Example 140, 7-(2,2-difluoroethoxy)-1-(4-(difluoromethoxy)phenyl)-3-(1-methyl-1H-benzo[d]imidazol-6-yl)-3,4-dihydropyrido[2,3-d]pyrimidin-2(1H)-one]"
< 100 nM,< 100 nM,100 to 1000 nM,> 1000 nM,"Cn1cc2cc(N3Cc4ccc(OCC(F)F)nc4N(c4ccc5[nH]cc(C#N)c5c4)C3=O)ccc2n1 [Example 410, 5-(7-(2,2-difluoroethoxy)-3-(2-methyl-2H-indazol-5-yl)-2-oxo-3,4-dihydropyrido[2,3-d]pyrimidin-1(2H)-yl)-1H-indole-3-carbonitrile]"
< 100 nM,100 to 1000 nM,100 to 1000 nM,> 1000 nM,"Cn1cc2cc(N3Cc4ccc(OCC(F)F)nc4N(c4ccc5[nH]cnc5c4)C3=O)ccc2n1 [Example 404, 1-(1H-benzo[d]imidazol-5-yl)-7-(2,2-difluoroethoxy)-3-(2-methyl-2H-indazol-5-yl)-3,4-dihydropyrido[2,3-d]pyrimidin-2(1H)-one]"
< 100 nM,100 to 1000 nM,100 to 1000 nM,> 1000 nM,"COc1ccc(N2C(=O)N(c3ccnc(OC)c3)Cc3cnc(NCC(F)(F)F)nc32)cc1 [Example 228, 1-(4-methoxyphenyl)-3-(2-methoxypyridin-4-yl)-7-((2,2,2-trifluoroethyl)amino)-3,4-dihydropyrimido[4,5-d]pyrimidin-2(1H)-one]"
< 100 nM,< 100 nM,< 100 nM,> 1000 nM,"Cc1nc2ccc(N3Cc4cnc(NCC(F)(F)F)nc4N(c4ccc(-c5nc[nH]n5)cc4)C3=O)cc2s1 [Example 217, 1-(4-(1H-1,2,4-triazol-3-yl)phenyl)-3-(2-methylbenzo[d]thiazol-6-yl)-7-((2,2,2-trifluoroethyl)amino)-3,4-dihydropyrimido[4,5-d]pyrimidin-2(1H)-one]"
< 100 nM,100 to 1000 nM,100 to 1000 nM,> 1000 nM,"CO[C@H]1CC[C@H](N2C(=O)N(c3ccc4nn(C)cc4c3)Cc3ccc(OCC(F)F)nc32)CC1 [Example 429, 7-(2,2-difluoroethoxy)-1-(trans-4-methoxycyclohexyl)-3-(2-methyl-2H-indazol-5-yl)-3,4-dihydropyrido[2,3-d]pyrimidin-2(1H)-one]"
< 100 nM,100 to 1000 nM,100 to 1000 nM,> 1000 nM,"COc1ccc(N2Cc3cnc(NCC(F)(F)F)nc3N(c3ccc(OC)cc3)C2=O)cc1 [Example 255, 1,3-bis(4-methoxyphenyl)-7-((2,2,2-trifluoroethyl)amino)-3,4-dihydropyrimido[4,5-d]pyrimidin-2(1H)-one]"
< 100 nM,< 100 nM,< 100 nM,> 1000 nM,"CCOc1ccc2c(n1)N(c1ccc(CF)nc1)C(=O)N(c1ccc3nn(C)cc3c1)C2 [Example 282, 7-ethoxy-1-(6-(fluoromethyl)pyridin-3-yl)-3-(2-methyl-2H-indazol-5-yl)-3,4-dihydropyrido[2,3-d]pyrimidin-2(1H)-one]"
< 100 nM,< 100 nM,100 to 1000 nM,> 1000 nM,CCOc1ccc2c(n1)N(c1ccc(OC(F)F)cc1)C(=O)N(c1ccc3nnn(C)c3c1)C2 [Example 109]
< 100 nM,< 100 nM,< 100 nM,> 1000 nM,"Cn1cc2cc(N3Cc4ncc(NCC(F)(F)F)cc4N(c4ccc(OC(F)F)cc4)C3=O)ccc2n1 [Example 428, 1-(4-(difluoromethoxy)phenyl)-3-(2-methyl-2H-indazol-5-yl)-7-((2,2,2-trifluoroethyl)amino)-3,4-dihydropyrido[3,2-d]pyrimidin-2(1H)-one]"
< 100 nM,< 100 nM,100 to 1000 nM,100 to 1000 nM,"Cn1cc2cc(N3Cc4ncc(OCC(F)F)nc4N(c4ccc(OC(F)F)cc4)C3=O)ccc2n1 [Example 182, 7-(2,2-difluoroethoxy)-1-(4-(difluoromethoxy)phenyl)-3-(2-methyl-2H-indazol-5-yl)-3,4-dihydropteridin-2(1H)-one]"
< 100 nM,100 to 1000 nM,> 1000 nM,> 1000 nM,"COc1ccc(N2Cc3cnc(NCC(F)(F)F)nc3N(c3ccc(Br)cc3)C2=O)cc1 [Example 236, 1-(4-bromophenyl)-3-(4-methoxyphenyl)-7-((2,2,2-trifluoroethyl)amino)-3,4-dihydropyrimido[4,5-d]pyrimidin-2(1H)-one]"
< 100 nM,< 100 nM,100 to 1000 nM,> 1000 nM,"CCOc1cnc2c(n1)N(c1ccc(OC(F)F)cc1)C(=O)N(c1ccc3nn(C)cc3c1)C2 [Example 183, 1-(4-(difluoromethoxy)phenyl)-7-ethoxy-3-(2-methyl-2H-indazol-5-yl)-3,4-dihydropteridin-2(1H)-one]"
< 100 nM,100 to 1000 nM,100 to 1000 nM,> 1000 nM,"CCOc1ccc2c(n1)N(c1ccc(OC(F)F)cc1)C(=O)N(c1ccc3nccn3c1)C2 [Example 101, 1-(4-(difluoromethoxy)phenyl)-7-ethoxy-3-(imidazo[1,2-a]pyridin-6-yl)-3,4-dihydropyrido[2,3-d]pyrimidin-2(1H)-one]"
< 100 nM,100 to 1000 nM,100 to 1000 nM,> 1000 nM,"Cn1cc2cc(N3Cc4ccc(OCC(F)F)nc4N(c4ccc5sncc5c4)C3=O)ccc2n1 [Example 176, 1-(benzo[d]isothiazol-5-yl)-7-(2,2-difluoroethoxy)-3-(2-methyl-2H-indazol-5-yl)-3,4-dihydropyrido[2,3-d]pyrimidin-2(1H)-one]"
< 100 nM,< 100 nM,< 100 nM,> 1000 nM,"CCOc1ccc2c(n1)N(c1ccc(-c3nnc[nH]3)cc1)C(=O)N(c1ccc3nn(C)cc3c1)C2 [Example 153, 1-(4-(4H-1,2,4-triazol-3-yl)phenyl)-7-ethoxy-3-(2-methyl-2H-indazol-5-yl)-3,4-dihydropyrido[2,3-d]pyrimidin-2(1H)-one]"
< 100 nM,100 to 1000 nM,100 to 1000 nM,> 1000 nM,"CCOc1ccc2c(n1)N(c1ccc(OC(F)F)cc1)C(=O)N(c1ccc(OC)cc1)C2 [Example 130, 1-(4-(difluoromethoxy)phenyl)-7-ethoxy-3-(4-methoxyphenyl)-3,4-dihydropyrido[2,3-d]pyrimidin-2(1H)-one]"
< 100 nM,100 to 1000 nM,100 to 1000 nM,100 to 1000 nM,"Cn1cc2cc(N3Cc4ccc(OCC(F)F)nc4N(c4ccc5ocnc5c4)C3=O)ccc2n1 [Example 283, 1-(benzo[d]oxazol-5-yl)-7-(2,2-difluoroethoxy)-3-(2-methyl-2H-indazol-5-yl)-3,4-dihydropyrido[2,3-d]pyrimidin-2(1H)-one]"
< 100 nM,< 100 nM,100 to 1000 nM,> 1000 nM,"O=C1N(c2ccc3ncsc3c2)Cc2ccc(OCC(F)F)nc2N1c1ccc(OC(F)F)cc1 [Example 408, 3-(benzo[d]thiazol-6-yl)-7-(2,2-difluoroethoxy)-1-(4-(difluoromethoxy)phenyl)-3,4-dihydropyrido[2,3-d]pyrimidin-2(1H)-one]"
< 100 nM,< 100 nM,100 to 1000 nM,> 1000 nM,"O=C1N(c2ccc3ncccc3c2)Cc2cnc(NCC(F)(F)F)nc2N1c1ccc(-c2nc[nH]n2)cc1 [Example 223, 1-(4-(1H-1,2,4-triazol-3-yl)phenyl)-3-(quinolin-6-yl)-7-((2,2,2-trifluoroethyl)amino)-3,4-dihydropyrimido[4,5-d]pyrimidin-2(1H)-one]"
< 100 nM,< 100 nM,< 100 nM,> 1000 nM,"[2H]C([2H])([2H])Oc1ccc(N2C(=O)N(c3ccc4nn(C([2H])([2H])[2H])cc4c3)Cc3cnc(NCC(F)(F)F)nc32)cc1 [Example 423, 1-(4-(methoxy-d3)phenyl)-3-(2-(methyl-d3)-2H-indazol-5-yl)-7-((2,2,2-trifluoroethyl)amino)-3,4-dihydropyrimido[4,5-d]pyrimidin2(1H)-one]"
< 100 nM,< 100 nM,100 to 1000 nM,100 to 1000 nM,"Cn1cc2cc(N3Cc4ccc(OCC(F)F)nc4N(c4ccc5ncccc5c4)C3=O)ccc2n1 [Example 175, 7-(2,2-difluoroethoxy)-3-(2-methyl-2H-indazol-5-yl)-1-(quinolin-6-yl)-3,4-dihydropyrido[2,3-d]pyrimidin-2(1H)-one]"
< 100 nM,< 100 nM,< 100 nM,100 to 1000 nM,"COc1ccc(N2C(=O)N(c3ccc4nn(C)cc4c3)Cc3ccc(OCC(F)F)nc32)cc1 [Example 141, 7-(2,2-difluoroethoxy)-1-(4-methoxyphenyl)-3-(2-methyl-2H-indazol-5-yl)-3,4-dihydropyrido[2,3-d]pyrimidin-2(1H)-one]"
